Tests used:
[1] = target: T1, Arachidonate 5-lipoxygenase-activating protein (Homo sapiens, UniProt P20292); assay: Displacement of [125I]L-691,831 from 5-lipoxygenase-activating protein in human polymorphonuclear cells
T1 sequence (P20292 whole entry): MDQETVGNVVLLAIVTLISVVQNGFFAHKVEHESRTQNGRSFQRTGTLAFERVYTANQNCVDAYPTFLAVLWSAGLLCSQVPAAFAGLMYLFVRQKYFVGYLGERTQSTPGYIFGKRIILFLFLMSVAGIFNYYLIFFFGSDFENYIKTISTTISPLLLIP

[2] = target: T1, Arachidonate 5-lipoxygenase-activating protein; assay: Inhibition of 5-lipoxygenase-activating protein in human polymorphonuclear cells assessed as inhibition of calcium ionophore-induced LTB4 production in presence of human whole blood; assay type: tissue-based
[3] = Half life in Sprague-Dawley rat at 1 mg/kg, iv and 2 mg/kg, po; assay type: ADME, organism-based; settings: in vivo
[4] = Clearance in Sprague-Dawley rat at 1 mg/kg, iv and 2 mg/kg, po; assay type: ADME, organism-based; settings: in vivo
[5] = Volume of distribution in Sprague-Dawley rat at 1 mg/kg, iv and 2 mg/kg, po; assay type: ADME, organism-based; settings: in vivo
[6] = Cmax in Sprague-Dawley rat at 1 mg/kg, iv and 2 mg/kg, po; assay type: ADME, organism-based; settings: in vivo
Rattus norvegicus = assay: Dose normalised AUC in Sprague-Dawley rat at 1 mg/kg, iv; assay type: ADME, organism-based; design: dose 1 mg/kg, route intravenous; settings: in vivo
[7] = Oral bioavailability in Sprague-Dawley rat at 2 mg/kg; assay type: ADME, organism-based; settings: in vivo

Row | IC50 [1] | IC50 [2] | Compound | further results
1 | 1.1 nM | 753 nM | S=c1[nH]nc(-c2ccc(OCc3ccc4ccccc4n3)cc2[C@]2(c3ccccc3)C[C@H]3CC[C@H]2C3)o1 (racemic) | –
2 | 96 nM | > 9000 nM | CCC(CC)(c1ccccc1)c1cc(OCc2ccc3ccccc3n2)ccc1C(=O)OC | –
3 | 5.8 nM | 2160 nM | O=C(Nc1cccnc1)c1ccc(OCc2ccc3ccccc3n2)cc1[C@]1(c2ccccc2)C[C@H]2CC[C@H]1C2 (racemic) | –
4 | 7.4 nM | > 8600 nM | COC(=O)c1ccc(OCc2ccc3ccccc3n2)cc1[C@]1(c2cccc(C(F)(F)F)c2)C[C@H]2CC[C@H]1C2 (racemic) | –
5 | 7.1 nM | 1730 nM | O=C(c1ccc(OCc2ccc3ccccc3n2)cc1[C@]1(c2ccccc2)C[C@H]2CC[C@H]1C2)N1CCCC1 (racemic) | –
6 | 2.6 nM | 695 nM | CC1CC(c2ccccc2)(c2cc(OCc3ccc4ccccc4n3)ccc2-c2n[nH]c(=O)o2)C1 (mixture of isomers) | half-life [3]: 2 h; clearance [4]: 32 mL/min/kg; Vd [5]: 3.1 L/kg; Cmax [6]: 120 nM; AUC/dose (Rattus norvegicus): 0.19 µM·kg·h/mg; bioavailability [7]: 17%
7 | 5.2 nM | 1400 nM | COC(=O)c1ccc(OCc2ccc3ccccc3n2)cc1C1(c2ccccc2)CC(C)(C)C1 | –
8 | 20 nM | > 7000 nM | COC(=O)c1ccc(OCc2ccc3ccccc3n2)cc1C1(c2ccccc2)CCC1 | –
9 | 0.8 nM | 469 nM | O=c1[nH]nc(-c2ccc(OCc3ccc4ccccc4n3)cc2[C@@]2(c3ccccc3)C[C@H]3CC[C@H]2C3)o1 | half-life [3]: 1 h; clearance [4]: 7.3 mL/min/kg; Vd [5]: 1 L/kg; Cmax [6]: 400 nM; AUC/dose (Rattus norvegicus): 0.58 µM·kg·h/mg; bioavailability [7]: 12%
10 | 2.4 nM | 502 nM | FC(F)n1nnc(-c2ccc(OCc3ccc4ccccc4n3)cc2[C@]2(c3ccccc3)C[C@H]3CC[C@H]2C3)n1 (racemic) | –
11 | 4 nM | 1600 nM | COC(=O)c1ccc(OCc2ccc3ccccc3n2)cc1[C@]1(c2ccccc2F)C[C@H]2CC[C@H]1C2 (racemic) | –
12 | 15 nM | 1560 nM | COC(=O)c1ccc(OCc2ccc3ccccc3n2)cc1C1(c2ccccc2)CCCCC1 | –
13 | 6.3 nM | 1020 nM | Cc1noc(-c2ccc(OCc3ccc4ccccc4n3)cc2[C@]2(c3ccccc3)C[C@H]3CC[C@H]2C3)n1 (racemic) | –
14 | 2.9 nM | 5720 nM | c1ccc([C@@]2(c3cc(OCc4ccc5ccccc5n4)ccc3-c3nnn[nH]3)C[C@H]3CC[C@H]2C3)cc1 (racemic) | –
15 | 1.9 nM | 534 nM | CC(C)(C)[C@@H](c1ccccc1)c1cc(OCc2ccc3ccccc3n2)ccc1-c1n[nH]c(=O)o1 | half-life [3]: 4.3 h; clearance [4]: 29 mL/min/kg; Vd [5]: 5.3 L/kg; Cmax [6]: 250 nM; AUC/dose (Rattus norvegicus): 0.34 µM·kg·h/mg; bioavailability [7]: 27%
16 | 48 nM | 964 nM | O=C(NC1CCCC1)c1ccc(OCc2ccc3ccccc3n2)cc1[C@]1(c2ccccc2)C[C@H]2CC[C@H]1C2 (racemic) | –
17 | 5.5 nM | 940 nM | COC(=O)c1ccc(OCc2ccc3ccccc3n2)cc1[C@]1(c2cccc(C)c2)C[C@H]2CC[C@H]1C2 (racemic) | –

The next lines start with the molecule.

Row | Compound | IC50 [1] | IC50 [2] | further results
18 | COC(=O)c1ccc(OCc2ccc3ccccc3n2)cc1[C@]1(c2cc(F)cc(F)c2)C[C@H]2CC[C@H]1C2 (racemic) | 3.4 nM | 1320 nM | –
19 | COC(=O)c1ccc(OCc2ccc3ccccc3n2)cc1[C@]1(c2ccc(F)cc2)C[C@H]2CC[C@H]1C2 (racemic) | 9.5 nM | 1400 nM | –
20 | Cc1nc(-c2ccc(OCc3ccc4ccccc4n3)cc2[C@]2(c3ccccc3)C[C@H]3CC[C@H]2C3)no1 (racemic) | 1.6 nM | 189 nM | –
21 | c1ccc([C@@]2(c3cc(OCc4ccc5ccccc5n4)ccc3-c3nnco3)C[C@H]3CC[C@H]2C3)cc1 (racemic) | 2.9 nM | 376 nM | –
22 | COC(=O)c1ccc(OCc2ccc3ccccc3n2)cc1[C@]1(c2cccc(F)c2)C[C@H]2CC[C@H]1C2 (racemic) | 2.3 nM | 472 nM | –
23 | COC(=O)c1ccc(OCc2ccc3ccccc3n2)cc1C1(c2ccccc2)C2CCC1CC2 (centres undefined) | 5.6 nM | 1300 nM | –
24 | Cn1nnc(-c2ccc(OCc3ccc4ccccc4n3)cc2[C@]2(c3ccccc3)C[C@H]3CC[C@H]2C3)n1 (racemic) | 2.8 nM | 313 nM | –
25 | c1ccc([C@@]2(c3cc(OCc4ccc5ccccc5n4)ccc3-c3ncon3)C[C@H]3CC[C@H]2C3)cc1 (racemic) | 5.4 nM | 721 nM | –
26 | Nc1nnc(-c2ccc(OCc3ccc4ccccc4n3)cc2[C@]2(c3ccccc3)C[C@H]3CC[C@H]2C3)o1 (racemic) | 2.2 nM | 258 nM | –
27 | Cc1nnc(-c2ccc(OCc3ccc4ccccc4n3)cc2[C@]2(c3ccccc3)C[C@H]3CC[C@H]2C3)o1 (racemic) | 5 nM | 456 nM | –
28 | COC(=O)c1ccc(OCc2ccc3ccccc3n2)cc1C(c1ccccc1)C1CCCCC1 (racemic) | 16 nM | > 9000 nM | –
29 | COC(=O)c1ccc(OCc2ccc3ccccc3n2)cc1C1(c2ccccc2)CC(F)(F)C1 | 50 nM | > 9000 nM | –
30 | COC(=O)c1ccc(OCc2ccc3ccccc3n2)cc1C1(c2ccccc2)CC(C)C1 (centres undefined) | 3.2 nM | 1100 nM | –
31 | CCn1nnc(-c2ccc(OCc3ccc4ccccc4n3)cc2[C@]2(c3ccccc3)C[C@H]3CC[C@H]2C3)n1 (racemic) | 2.4 nM | 177 nM | –
32 | COC(=O)c1ccc(OCc2ccc3ccccc3n2)cc1C(c1ccccc1)C(C)(C)C (racemic) | 5.5 nM | 670 nM | –
33 | COC(=O)c1ccc(OCc2ccc3ccccc3n2)cc1C1(c2ccccc2)CCCC1 | 8.5 nM | 3700 nM | –
34 | COC(=O)c1ccc(OCc2ccc3ccccc3n2)cc1[C@]1(c2ccccc2)C[C@H]2CC[C@H]1C2 (racemic) | 2.1 nM | 460 nM | –
35 | CC(C)n1nnc(-c2ccc(OCc3ccc4ccccc4n3)cc2[C@]2(c3ccccc3)C[C@H]3CC[C@H]2C3)n1 (racemic) | 1.7 nM | 149 nM | –
36 | COC(=O)c1ccc(OCc2ccc3ccccc3n2)cc1C(C)(C)c1ccccc1 | 58 nM | > 9000 nM | –
37 | COC(=O)c1ccc(OCc2ccc3ccccc3n2)cc1[C@]1(c2cccc(OC)c2)C[C@H]2CC[C@H]1C2 (racemic) | 2.5 nM | 322 nM | –
38 | COC(=O)c1ccc(OCc2ccc3ccccc3n2)cc1[C@]1(c2cc(C)cc(C)c2)C[C@H]2CC[C@H]1C2 (racemic) | 3.5 nM | 2300 nM | –
39 | COC(=O)c1ccc(OCc2ccc3ccccc3n2)cc1C(CC(C)(C)C)c1ccccc1 (racemic) | 3 nM | 2000 nM | –
40 | COc1cccc([C@]2(c3cc(OCc4ccc5ccccc5n4)ccc3-c3n[nH]c(=O)o3)C[C@H]3CC[C@H]2C3)c1 | 1.1 nM | 375 nM | half-life [3]: 1.2 h; clearance [4]: 7.2 mL/min/kg; Vd [5]: 0.7 L/kg; Cmax [6]: 670 nM; AUC/dose (Rattus norvegicus): 0.79 µM·kg·h/mg; bioavailability [7]: 17%
41 | CC1(C)CC(c2ccccc2)(c2cc(OCc3ccc4ccccc4n3)ccc2-c2n[nH]c(=O)o2)C1 | 3.6 nM | 834 nM | half-life [3]: 1.7 h; clearance [4]: 71 mL/min/kg; Vd [5]: 7.5 L/kg; Cmax [6]: 10 nM; AUC/dose (Rattus norvegicus): 0.05 µM·kg·h/mg; bioavailability [7]: 9%
42 | O=c1[nH]nc(-c2ccc(OCc3ccc4ccccc4n3)cc2[C@]2(c3ccccc3)C[C@H]3CC[C@H]2C3)o1 (racemic) | 2.5 nM | 796 nM | –

Reference: ChEMBL document CHEMBL2029294, “Evaluation of endo- and exo-aryl-substitutions and central scaffold modifications on diphenyl substituted alkanes as 5-lipoxygenase activating protein inhibitors” (Bioorg Med Chem Lett, 2012)
